Laboratory results: patent US8309522B2, “Neuromedin and FN-38 peptides for treating psychiatric diseases” (Amylin Pharmaceuticals, LLC, priority 2007, dated 2012)
Ends that are not written are not given here.

Experiments:
mice [1] = assay: Prepulse inhibition (PPI) test; assay type: in vivo; settings: 78 and 82 dB prepulse, FIG. 4
Description: (§1) Animal behavior assays were performed to test for anxiolytic and antipsychotic effects of FN-38 (SEQ ID NO:5) administration. […] These specific behavioral tests are known to be sensitive to anxiolytic or antipsychotic drugs. For these assays, FN-38 was administered to mice at doses ranging from 0.1 to 10 mg/kg, intraperitoneally, and their performance in the assay was assessed.
The prepulse inhibition (PPI) test measures the reflex response to externally applied auditory stimulation (acoustic startle response) and is related to the deficiency in sensory-motor gating capacity seen in schizophrenia. The acoustic startle reflex is a very basic response to strong exteroceptive stimuli and is widely used to assess sensorimotor reactivity in animals and humans. A weak auditory stimulus (prepulse, 74-82 dB) given prior to the strong acoustic stimulus (120 dB) blunts the startle response. This blunting of the startle response is referred to as prepulse inhibition. See, for example, Conti et al., 2005, Behavioral Neuroscience 119:1052-1060. […]
Mice were injected with the test agent (FN-38 (SEQ ID NO:5) at 0.1, 1.0 or 10 mg/kg, or vehicle (water)) […] to the test or with haloperidol at 1 mg/kg or vehicle (10% DMSO) 30 minutes prior to the test. […] The amount of the animal's “reaction” to the strong stimulus was recorded. […]

mice [2] = assay: Stress-induced hyperthermia (SIH) assay; assay type: in vivo; settings: 60 minutes before the assay, FIG. 1
Description: as §1
Body temperature and emotionality are correlated in humans and stress commonly induces an increase in body temperature (hyperthermic response) in rodents. The thermic response to stress is commonly used as an indication of enhanced emotionality or anxiety in rodents and stress-induced hyperthermia (SIH) in mice is considered to have predictive validity for certain human anxiety/stress disorders. The SIH assay assesses the effect of anxiolytics or test agents on SIH and measures the intrinsic effects of these drugs on core body temperature of the animal. See, for example, Zethof et al., 1994, Physiol. Behav. 55:109-115. Anxiolytics blunt the increase in body temperature, or hyperthermic response, following stress exposure. Buspirone is a partial 5-HT1A agonist and a known anxiolytic agent. […] The stress from the first measurement induces hyperthermia which was measured by the second temperature measurement. […]

mice [3] = assay: Marble burying; assay type: in vivo; settings: FN-38 10 mg/kg intraperitoneally, 15-30 minutes prior to the test; statistically significant; FIG. 2
Description: as §1
Marble burying is used as a model for both anxiety and obsessive-compulsive disorder. See, for example, Chaki et al., 2003, J. Pharmacol. Exp. Ther. 304:818-826. Anxiolytics suppress marble burying activity. Benzodiazepine chlordiazepoxide (CDP) is a known anxiolytic agent. Mice were injected with the test agent (FN-38 (SEQ ID NO:5) at 0.1, 1.0 or 10 mg/kg, 15 mg/kg CDP, or vehicle (water)) 15-30 minutes prior to the test. Mice were then placed individually in clean cages containing 5-cm of hard wood bedding and 20 marbles spaced evenly in rows of five. The number of marbles buried in 30 minutes was recorded. Results of this assay are shown in FIG. 2 where * is P<0.05 vs. vehicle control. […] These reductions in marble burying were statistically significant.

mice [4] = assay: Phencyclidine (PCP)-induced locomotion test; assay type: in vivo; settings: FN-38 10 mg/kg, 15-30 minutes prior to 5 mg/kg PCP; activity recorded for 60 minutes; FIG. 3
Description: as §1
The PCP-induced locomotion test is used with open field activity chambers and measures locomotion, rearing, and stereotypic activity under amphetamine/PCP-induced conditions. The test has predictive validity for some antipsychotic drugs that normalize the hyperactivity and stereotypic behavior seen with amphetamine and PCP. See, for example, Williams et al., 2006, Prog. Neuropsychopharmacol. Biol. Psychiatry, 30:239-243. Mice were injected with the test agent (FN-38 (SEQ ID NO:5) at 0.1, 1.0 or 10 mg/kg, or vehicle (water)) 15-30 minutes prior injection with 5 mg/kg PCP. The animals were then placed in the center of an open field and activity was recorded for 60 minutes.

rats = settings: central administration to rats; cited from earlier work

Compound: O=C(CCCN1CCC(O)(c2ccc(Cl)cc2)CC1)c1ccc(F)cc1 [halperidol, haloperidol, reference compound]
- percent of prepulse inhibition (mice [1]; haloperidol at 1 mg/kg, 30 minutes prior to the test, positive control): increased the percent of prepulse inhibition

Compound: FLFHYSKTQKLGKSNVVEELQSPFASQSRGYFLFRPRN (FLFHYSKTQKLGKSNVVEELQSPFASQSRGYFLFRPRN-NH2; listed as Homo sapiens) [FN-38]
- stress-induced hyperthermia (Delta Temperature) (mice [2]; FN-38 10 mg/kg intraperitoneally, P<0.05 vs. vehicle control): blunted the SIH response
- number of marbles buried in 30 minutes (mice [3]): reduced the number of marbles buried
- PCP-induced hyper-locomotion (total distance traveled: total, central, and peripheral) (mice [4]): significantly reduced this hyper-locomotion response
- percent of prepulse inhibition (mice [1]; FN-38 10 mg/kg, 120 dB stimulus): increased the percent of prepulse inhibition

Compound: neuromedin U (YKVNEYQGPVAPSGGFFLFRPRN-NH2; UniProt P12760 144-166, looked up) [NMU, neuromedin U, centrally administered to rats in cited literature]
- food intake (rats): inhibited food intake

Compound: O=C1CC2(CCCC2)CC(=O)N1CCCCN1CCN(c2ncccn2)CC1 [buspirone, reference compound]
- stress-induced hyperthermia (Delta Temperature) (mice [2]; 15 mg/kg buspirone, positive control): blunted the SIH response
